We go through 22 compounds from patent US20230091225A1, “Bifunctional chimeric heterocyclic compounds for targeted degradation of androgen receptors and use thereof” (HINOVA PHARMACEUTICALS INC., priority 2019, published 2023).

This test addresses T1, androgen receptor (AR) (Homo sapiens, UniProt P10275).
T1 sequence (P10275 1-920): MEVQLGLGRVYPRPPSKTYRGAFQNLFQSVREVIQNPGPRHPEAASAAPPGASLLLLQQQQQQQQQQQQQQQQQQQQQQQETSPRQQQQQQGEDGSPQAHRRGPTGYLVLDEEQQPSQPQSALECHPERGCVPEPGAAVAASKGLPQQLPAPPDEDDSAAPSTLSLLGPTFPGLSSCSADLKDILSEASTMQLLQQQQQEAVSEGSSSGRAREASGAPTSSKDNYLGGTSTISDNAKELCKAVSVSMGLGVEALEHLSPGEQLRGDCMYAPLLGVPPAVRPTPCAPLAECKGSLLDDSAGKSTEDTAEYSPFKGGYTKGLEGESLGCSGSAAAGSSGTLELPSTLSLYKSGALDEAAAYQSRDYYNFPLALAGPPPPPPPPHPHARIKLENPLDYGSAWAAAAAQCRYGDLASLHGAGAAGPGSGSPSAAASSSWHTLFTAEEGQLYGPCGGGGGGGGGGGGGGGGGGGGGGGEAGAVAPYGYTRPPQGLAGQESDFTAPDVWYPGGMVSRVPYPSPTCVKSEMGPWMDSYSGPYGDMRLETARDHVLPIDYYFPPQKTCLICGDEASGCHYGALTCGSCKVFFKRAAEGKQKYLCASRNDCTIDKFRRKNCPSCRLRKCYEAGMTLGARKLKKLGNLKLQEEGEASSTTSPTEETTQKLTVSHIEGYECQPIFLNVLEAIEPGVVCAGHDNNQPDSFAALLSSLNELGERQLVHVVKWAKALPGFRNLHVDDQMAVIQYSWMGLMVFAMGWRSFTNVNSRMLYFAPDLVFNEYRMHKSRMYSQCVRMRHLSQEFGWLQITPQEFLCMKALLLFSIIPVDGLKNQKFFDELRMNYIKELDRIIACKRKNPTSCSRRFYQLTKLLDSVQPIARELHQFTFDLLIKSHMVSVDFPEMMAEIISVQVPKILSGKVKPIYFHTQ
As to the kind of experiment: Degradation of androgen receptor (AR) protein in VCaP cells by Western blot. Format: cell-based. The following applies: percentage of degraded AR at 100 nM, VCaP cells, 16 h. Here is the method: Determination of the Degradation Activity of the Compound on Androgen Receptor (AR) Protein by Western Blot
1) VCaP cells were subcultured in cell culture media, and then the cells in good growth condition were seeded in a 12-well plate at 1 ml/well (5×10^5 cells/well), and cultured overnight in a 37° C., 5% CO2 cell incubator. 2) The test compound was prepared into a 10 mM stock solution with dimethyl sulfoxide (DMSO). Prior to use, the solution was diluted 3 times with DMSO. […] of the diluted compound solution was added to the cell culture well (ensuring that the DMSO concentration in the culture system was 0.1%), and two wells were set for each concentration. The plate was gently shaken to mix. In addition, the experiment included negative control wells (containing equal amount of DMSO) and positive control wells. 3) After culturing 16 h. the cells were lysed with RIPA cell lysate, and the protein was extracted. The protein concentration was measured with BCA kit. 5-fold concentrated protein loading buffer was added, and after heated at 100° C. for 5 min. the sample was stored at −20° C. 4) for each well, 30 μg of protein was loaded on polyacrylamide gel for electrophoresis. 5) The protein was transferred from polyacrylamide gel to PVDF membrane, and then 5% skim milk was added to close for 1 h at room temperature. The first antibody (Androgen Receptor (D6F11) XP Rabbit mAb and Anti-β-Actin Rabbit mAb) was added and incubated overnight at 4° C. The membrane was washed with TBST solution three times. 10 min for each time. The secondary antibody (horseradish peroxidase labeled goat […]) was added and incubated at room temperature for 2 h, and then the membrane was washed with TBST solution three times. 10 min for each time.
Finally, ECL chemiluminescence solution was added, and then photos were taken with automatic chemiluminescence instrument to collect pictures for analysis.
The compound `N#Cc1ccc(O[C@H]2CC[C@H](NC(=O)c3nnc(N4CC5(CCN(CC6CCN(c7ccc8c(c7)C(=O)N(C7CCC(=O)NC7=O)C8=O)CC6)CC5)C4)s3)CC2)cc1Cl` (stereo partly shown) [Compound 105, N-((1r,4r)-4-(3-chloro-4-cyanophenoxy)cyclohexyl)-5-(7-((1-(2-(2,6-dioxopiperidin-3-yl)-1,3-dioxoisoindolin-5-yl)piperidine-4-yl)methyl)-2,7-diazaspiro[3.5]nonan-2-yl)-1,3,4-thiadiazole-2-carboxamide] registered an inhibition at 0.1 µM of 50 to 79%. The result for `N#Cc1ccc(OC2CC3(CC(NC(=O)c4ccc(N5CCC(CN6CCN(c7ccc8c(c7)C(=O)N(C7CCC(=O)NC7=O)C8=O)CC6)CC5)nn4)C3)C2)cc1Cl` (stereo not shown) [Compound 109] reads < 25%. The result for `N#Cc1ccc(O[C@H]2CC[C@H](NC(=O)c3ccc(N4CCC(O[C@@H]5CCN(c6ccc7c(c6)C(=O)N(C6CCC(=O)NC6=O)C7=O)C5)CC4)cc3)CC2)cc1Cl` (stereo partly shown) [Compound 111] reads < 25%; that for `N#Cc1ccc(O[C@H]2CC[C@H](NC(=O)c3ccc(N4CCC(NC5CCN(c6ccc7c(c6)C(=O)N(C6CCC(=O)NC6=O)C7=O)CC5)CC4)nn3)CC2)cc1Cl` (stereo partly shown) [Compound 118, N-((1r,4r)-4-(3-chloro-4-cyanophenoxy)cyclohexyl)-6-(4-((1-(2-(2,6-dioxopiperidin-3-yl)-1,3-dioxoisoindolin-5-yl)piperidine-4-yl)amino)piperidin-1-yl)pyridazine-3-amide], 25 to 49%.

Consider `N#Cc1ccc(OC2CC3(C2)CN(C(=O)c2ccc(N4CCC(CN5CCN(c6ccc7c(c6)C(=O)N(C6CCC(=O)NC6=O)C7=O)CC5)CC4)nn2)C3)cc1Cl` (stereo not shown) [Compound 120, 2-chloro-4-((2-(6-(4-((4-(2-(2,6-dioxopiperidin-3-yl)-1,3-dioxoisoindolin-5-yl)piperazin-1-yl)methyl)piperidin-1-yl)pyridazine-3-carbonyl)-2-azaspiro[3.3]heptan-6-yl)oxy)benzonitrile], for which the inhibition at 0.1 µM was < 25%. The result for `N#Cc1ccc(O[C@H]2CC[C@H](NC(=O)c3ccc(N4CC(CN5CC6CN(c7cc8c(cc7F)C(=O)N(C7CCC(=O)NC7=O)C8=O)CC6C5)C4)nn3)CC2)cc1Cl` (stereo partly shown) [Compound 137] reads 50 to 79%; that for `N#Cc1ccc(O[C@H]2CC[C@H](NC(=O)c3cnc(N4CC(CN5CC6CN(c7cc8c(cc7F)C(=O)N(C7CCC(=O)NC7=O)C8=O)CC6C5)C4)cn3)CC2)cc1Cl` (stereo partly shown) [Compound 138], 25 to 49%; that for `N#Cc1ccc(O[C@H]2CC[C@H](NC(=O)c3ccc(N4CCC(CN5CCC(Nc6cc7c(cc6F)C(=O)N(C6CCC(=O)NC6=O)C7=O)CC5)CC4)nn3)CC2)cc1Cl` (stereo partly shown) [Compound 139], > 80%. Compound `N#Cc1ccc(O[C@H]2CC[C@H](NC(=O)c3cnc(N4CC(CN5CC6CN(c7cc8c(cc7F)C(=O)N(C7CCC(=O)NC7=O)C8=O)CC6C5)C4)nc3)CC2)cc1Cl` (stereo partly shown) [Compound 140] gave an inhibition at 0.1 µM of 25 to 49%.

On to `N#Cc1ccc(O[C@H]2CC[C@H](NC(=O)c3cnc(N4CCC(CN5CCC6(CCN(c7cc8c(cc7F)C(=O)N(C7CCC(=O)NC7=O)C8=O)C6)C5)CC4)cn3)CC2)cc1Cl` (stereo partly shown) [Compound 141], for which the inhibition at 0.1 µM is > 80%. The result for `N#Cc1ccc(O[C@H]2CC[C@H](NC(=O)c3ccc(N4CCC(CN5CCC6(CCN(c7cc8c(cc7F)C(=O)N(C7CCC(=O)NC7=O)C8=O)C6)C5)CC4)nn3)CC2)cc1Cl` (stereo partly shown) [Compound 142, N-((1r,4r)-4-(3-chloro-4-cyanophenoxy)cyclohexyl)-6-(4-((7-(2-(2,6-dioxopiperidin-3-yl)-6-fluoro-1,3-dioxoisoindol-5-yl)-2,7-diazaspiro[4.4]nonan-2-yl)methyl)piperidin-1-yl)pyridazine-3-formamide] reads > 80%. The result for `N#Cc1ccc(O[C@H]2CC[C@H](NC(=O)c3ccc(N4CCC(CN5CCC(Nc6ccc7c(c6)C(=O)N(C6CCC(=O)NC6=O)C7=O)CC5)CC4)nn3)CC2)cc1Cl` (stereo partly shown) [Compound 143] reads > 80%; that for `N#Cc1ccc(O[C@H]2CC[C@H](NC(=O)c3cnc(N4CCC(CN5CCC(Nc6cc7c(cc6F)C(=O)N(C6CCC(=O)NC6=O)C7=O)CC5)CC4)cn3)CC2)cc1Cl` (stereo partly shown) [Compound 145], > 80%; that for `N#Cc1ccc(O[C@H]2CC[C@H](NC(=O)c3cnc(N4CCC(CN5CCC(Nc6ccc7c(c6)C(=O)N(C6CCC(=O)NC6=O)C7=O)CC5)CC4)cn3)CC2)cc1Cl` (stereo partly shown) [Compound 146], > 80%. The result for `N#Cc1ccc(O[C@H]2CC[C@H](NC(=O)c3cnc(N4CC5CN(CC6CCN(c7cc8c(cc7F)C(=O)N(C7CCC(=O)NC7=O)C8=O)CC6)CC5C4)cn3)CC2)cc1Cl` (stereo partly shown) [Compound 157] reads > 80%; that for `N#Cc1ccc(O[C@H]2CC[C@H](NC(=O)c3cnc(N4CC5CN(CC6CN(c7cc8c(cc7F)C(=O)N(C7CCC(=O)NC7=O)C8=O)C6)CC5C4)cn3)CC2)cc1Cl` (stereo partly shown) [Compound 159], 50 to 79%; that for `N#Cc1ccc(O[C@H]2CC[C@H](NC(=O)c3ccc(N4CC5CN(CC6CN(c7cc8c(cc7F)C(=O)N(C7CCC(=O)NC7=O)C8=O)C6)CC5C4)nn3)CC2)cc1Cl` (stereo partly shown) [Compound 160], < 25%. `CC1(C)[C@H](NC(=O)c2ccc(N3CC4CN(CC5CN(c6cc7c(cc6F)C(=O)N(C6CCC(=O)NC6=O)C7=O)C5)CC4C3)nn2)C(C)(C)[C@H]1Oc1ccc(C#N)c(Cl)c1` (stereo partly shown) [Compound 161, N-((1r,3r)-3-(3-chloro-4-cyanophenoxy)-2,2,4,4-tetramethylcyclobutyl)-6-(5-((1-(2-(2,6-dioxopiperidin-3-yl)-6-fluoro-1,3-dioxoisoindolin-5-yl)azelaic acid-3-yl)methyl)hexahydropyrrolo[3,4-c]pyrrol-2(1H)-pyrazole)formamide] showed an inhibition at 0.1 µM of 50 to 79%. As for `N#Cc1ccc(O[C@H]2CC[C@H](NC(=O)c3ccc(N4CCC5(CCN(CC6CCN(c7cc8c(cc7F)C(=O)N(C7CCC(=O)NC7=O)C8=O)CC6)C5)C4)nn3)CC2)cc1Cl` (stereo partly shown) [Compound 162, N-((1r,4r)-4-(3-chloro-4-cyanophenoxy)cyclohexyl)-6-(7-((1-(2-(2,6-dioxopiperidin-3-yl)-6-fluoro-1,3-dioxoisoindolin-5-yl)piperidine-4-yl)methyl)-2,7-diazaspiro[4.4]nonan-2-yl)pyridazine-3-formamide], the inhibition at 0.1 µM is > 80%. As for `N#Cc1ccc(O[C@H]2CC[C@H](NC(=O)c3cnc(N4CCC5(CCN(CC6CCN(c7cc8c(cc7F)C(=O)N(C7CCC(=O)NC7=O)C8=O)CC6)C5)C4)cn3)CC2)cc1Cl` (stereo partly shown) [Compound 163], the inhibition at 0.1 µM is > 80%.

Turning to `N#Cc1ccc(O[C@H]2CC[C@H](NC(=O)c3ccc(N4CCC(N5CCC6(CCN(c7cc8c(cc7F)C(=O)N(C7CCC(=O)NC7=O)C8=O)C6)C5)CC4)nn3)CC2)cc1Cl` (stereo partly shown) [Compound 164, N-((1r,4r)-4-(3-chloro-4-cyanophenoxy)cyclohexyl)-6-(4-(7-(2-(2,6-dioxopiperidin-3-yl)-6-fluoro-1,3-dioxoisoindol-5-yl)-2,7-diazaspiro[4.4]nonan-2-yl)piperidin-1-yl)pyridazine-3-formamide], the inhibition at 0.1 µM was > 80%.

Regarding `N#Cc1ccc(O[C@H]2CC[C@H](NC(=O)c3cnc(N4CCC(N5CCC6(CCN(c7cc8c(cc7F)C(=O)N(C7CCC(=O)NC7=O)C8=O)C6)C5)CC4)cn3)CC2)cc1Cl` (stereo partly shown) [Compound 165, N-((1r,4r)-4-(3-chloro-4-cyanophenoxy)cyclohexyl)-5-(4-(7-(2-(2,6-dioxopiperidin-3-yl)-6-fluoro-1,3-dioxoisoindolin-5-yl)-2,7-diazaspiro[4.4]nonan-2-yl)piperidin-1-yl)pyrazine-2-carboxamide], the inhibition at 0.1 µM is > 80%.
